Reference: patent US20240199605A1, “SMALL MOLECULAR INHIBITORS OF NF-kB INDUCING KINASE” (Janssen Pharmaceutica NV, priority 2019, published 2024)

molecular target: recombinant human NF-kappaB-inducing kinase (NIK/MAP3K14) (Homo sapiens (Human), UniProt Q99558); test: Inhibition of auto-phosphorylation of recombinant human NIK/MAP3K14 (AlphaScreen); assay type: biochemical; details: NIK auto-phosphorylation, 5 μM ATP, 1 nM NIK, 2 h at 25° C.; average of values
Procedure: Inhibition of auto-phosphorylation of recombinant human NF-kappaB-inducing kinase (NIK/MAP3K14) activity (AlphaScreen®)
NIK/MAP3K14 auto-phosphorylation activity was measured using the AlphaScreen® (αscreen) format (Perkin Elmer). All compounds tested were dissolved in dimethyl sulfoxide (DMSO) and further dilutions were made in assay buffer. The final DMSO concentration was 0.7% (v/v) in assays. The assay buffer was 50 mM Tris pH 7.5 containing 1 mM EGTA (ethylene glycol tetraacetic acid), 1 mM DTT (dithiothreitol), 0.1 mM Na3VO4, 5 mM MgCl2, and 0.01% Tween® 20. The assays were carried out in 384 well Proxiplates (Perkin Elmer). The incubations consisted of the compound, 5 μM Adenosine-5′-triphosphate (ATP), and 1 nM NIK/MAP3K14. Incubations were initiated by the addition of GST-tagged NIK/MAP3K14 enzyme, carried out for 2 h at 25° C. and terminated by addition of stop buffer containing anti-phospho-IKK Ser176/180 antibody. Protein A Acceptor and Glutathione-Donor beads were added before reading using an EnVision® Multilabel Plate Reader (Perkin Elmer). […] IC50's were determined by fitting a sigmoidal curve to % inhibition of control versus Log10 compound concentration.

recombinant human NF-kappaB-inducing kinase (NIK/MAP3K14), sequence (Q99558 whole entry): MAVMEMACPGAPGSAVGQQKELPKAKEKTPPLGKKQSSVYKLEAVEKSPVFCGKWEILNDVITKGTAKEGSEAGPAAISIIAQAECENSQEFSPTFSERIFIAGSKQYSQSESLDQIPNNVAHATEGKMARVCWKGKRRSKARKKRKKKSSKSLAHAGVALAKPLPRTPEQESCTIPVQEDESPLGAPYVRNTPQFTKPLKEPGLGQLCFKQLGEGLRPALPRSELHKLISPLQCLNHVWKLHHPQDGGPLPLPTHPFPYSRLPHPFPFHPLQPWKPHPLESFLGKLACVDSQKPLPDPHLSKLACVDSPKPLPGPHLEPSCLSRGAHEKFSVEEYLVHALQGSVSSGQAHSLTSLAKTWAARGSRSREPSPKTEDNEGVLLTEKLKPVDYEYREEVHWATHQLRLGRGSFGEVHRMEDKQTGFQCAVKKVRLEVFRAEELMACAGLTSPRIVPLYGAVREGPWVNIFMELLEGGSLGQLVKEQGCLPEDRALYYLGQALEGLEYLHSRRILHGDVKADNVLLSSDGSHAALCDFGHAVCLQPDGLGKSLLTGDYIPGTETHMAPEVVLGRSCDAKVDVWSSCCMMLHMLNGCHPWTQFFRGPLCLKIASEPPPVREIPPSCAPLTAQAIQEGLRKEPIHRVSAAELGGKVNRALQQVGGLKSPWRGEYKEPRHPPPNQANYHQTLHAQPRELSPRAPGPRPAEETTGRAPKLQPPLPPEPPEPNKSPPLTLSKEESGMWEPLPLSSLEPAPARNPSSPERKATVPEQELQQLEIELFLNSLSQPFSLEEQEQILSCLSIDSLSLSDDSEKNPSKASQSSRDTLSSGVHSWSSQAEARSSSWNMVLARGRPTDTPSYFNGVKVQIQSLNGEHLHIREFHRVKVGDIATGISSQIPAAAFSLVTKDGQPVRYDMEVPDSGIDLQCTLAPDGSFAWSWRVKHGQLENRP

Row | IC50 [nM] | SMILES
1 | 1.4 | CN1CC[C@@](O)(C#Cc2cccc(-c3ccc4nc(C(F)(F)F)nc(N)c4n3)c2)C1=O [Example 176, (R)-3-((3-(4-Amino-2-(trifluoromethyl)pyrido[3,2-d]pyrimidin-6-yl)phenyl)ethynyl)-3-hydroxy-1-methylpyrrolidin-2-one]
2 | 1800 | CN1CC[C@@](O)(C#Cc2cccc(-c3ccc4ccnc(N5CCC5)c4c3)c2)C1=O [Example 234, (R)-3-((3-(1-(Azetidin-1-yl)isoquinolin-7-yl)phenyl)ethynyl)-3-hydroxy-1-methylpyrrolidin-2-one]
3 | 2030 | Nc1nccc2cnc(-c3cccc(C#CC4(O)CCc5cccnc54)c3)nc12 (stereo in doubt) [Example 46, (S)-7-[2-[3-(8-Aminopyrido[3,4-d]pyrimidin-2-yl)phenyl]ethynyl]-5,6-dihydrocyclopenta[b]pyridin-7-ol]
4 | 1 | Cc1ccc(C#C[C@@]2(O)C(=O)N(C)[C@@H]3C[C@@H]32)cc1-c1nc2c(N)ncnc2s1 [Example 318, (1R,4R,5S)-4-((3-(7-Aminothiazolo[5,4-d]pyrimidin-2-yl)-4-methylphenyl)ethynyl)-4-hydroxy-2-methyl-2-azabicyclo[3.1.0]hexan-3-one]

Further lines, the compound ahead of its results:

Row | SMILES | IC50 [nM]
5 | Nc1ncnc2cnc(-c3cccc(C#C[C@]4(O)CCn5ccnc54)c3)nc12 [Example 146, (R)-7-[2-[3-(4-Aminopyrimido[5,4-d]pyrimidin-6-yl)phenyl]ethynyl]-5,6-dihydropyrrolo[1,2-a]imidazol-7-ol] | ≤ 0.5
6 | Cc1cc2cnc(-c3cccc(C#C[C@]4(O)CCN(C)C4=O)c3)nc2c(N)n1 [Example 44, (R)-3-((3-(8-Amino-6-methylpyrido[3,4-d]pyrimidin-2-yl)phenyl)ethynyl)-3-hydroxy-1-methylpyrrolidin-2-one] | 43
7 | CN1CC[C@@](O)(C#Cc2cccc(-c3cc(N4CC(C(F)(F)F)C4)c4ncnc(N)c4n3)c2)C1=O [Example 315, (R)-3-[2-[3-[4-Amino-8-[3-(trifluoromethyl)azetidin-1-yl]pyrido[3,2-d]pyrimidin-6-yl]phenyl]ethynyl]-3-hydroxy-1-methyl-pyrrolidin-2-one] | 5
8 | CN1CC[C@@](O)(C#Cc2cccc(-c3cc(NCC(F)(F)F)c4ncnc(N)c4n3)c2)C1=O [Example 317, (R)-3-((3-(4-Amino-8-((2,2,2-trifluoroethyl)amino)pyrido[3,2-d]pyrimidin-6-yl)phenyl)ethynyl)-3-hydroxy-1-methylpyrrolidin-2-one] | 0.6
9 | Cc1ccc(C#C[C@]2(O)C[C@@H](C)N(C)C2=O)cc1-c1nc2c(N)ncnc2s1 [Example 319, (3R,5R)-3-((3-(7-Aminothiazolo[5,4-d]pyrimidin-2-yl)-4-methylphenyl)ethynyl)-3-hydroxy-1,5-dimethylpyrrolidin-2-one] | 1.5
10 | CN1CC[C@@](O)(C#Cc2cccc(-c3cc(C(F)F)c4ncnc(N)c4n3)c2)C1=O [Example 289, (R)-3-((3-(4-Amino-8-(difluoromethyl)pyrido[3,2-d]pyrimidin-6-yl)phenyl)ethynyl)-3-hydroxy-1-methylpyrrolidin-2-one] | 1.4

tested on: p-IKKα levels in L363 (NIK translocated multiple myeloma) cells; test: Effect of compounds on p-IKKα levels in L363 cells (AlphaLISA SureFire Ultra); assay type: cell-based, human; details: Homo sapiens, L-363, 6 h, BAFF stimulated, MG132, 6 h, average of values, read-out: Assay 2 IC50
Procedure: Effect of Compounds on p-IKKα Levels in L363 (NIK Translocated Multiple Myeloma) Cells
All compounds tested were dissolved and serially diluted in DMSO, 1:3 dilution for 11 points in an Echo compatible plate. 100% DMSO was added to columns 12 and 24 of the plate to serve as high and low signal controls. This compound plate was used to spot 20 nL of compound or DMSO into a Greiner 384 well TC plate (781080). The final DMSO concentration was 0.3% (v/v) in cell assays. Human L363 cells (ATCC) were cultured in RPM11640 medium supplemented with GlutaMax, non-essential amino acids, sodium pyruvate and 10% fetal bovine serum. Cells were routinely maintained at densities of […] at 37° C. in a humidified 5% CO2 atmosphere incubator. Cells were passaged twice a week splitting back to obtain the low density. The day before the assay, cells were washed twice in HBSS (Hank's Balanced Salt Solution), resuspended in Dulbecco's Modified Eagle Medium (DMEM)+0.5% IgG and protease free BSA (Jackson Immuno Research Laboratories), +/−250 ng/ml recombinant human B-cell activating factor (BAFF/BLyS/TNFSF13B) and incubated overnight at 37° C. in a humidified 5% CO2 atmosphere (bulk stimulation with or without BAFF). The next day, the cell concentration was adjusted to 1×10^7 cells/ml in DMEM+/−250 ng/ml BAFF+/−10 μM MG132 and plated at 10 μl/well into compound or DMSO spotted 384 well TC plates. Seeded cells were incubated at 37° C. in a humidified 5% CO2 atmosphere for 6 h. After 6 h, the plates were removed from the incubator and cell lysis was achieved by the addition of 2.5 μl 5× lysis buffer containing protease and phosphatase inhibitors, followed by shaking on a plate shaker at room temperature for 15 min. At the end of this incubation, lysed cells were sequentially treated and incubated with acceptor and donor bead mixes according to the manufacturer's protocol for a 1 plate/2-incubation suspension cell assay (AlphaLISA SureFire Ultra p-IKKa (Ser 176/180) Assay Kit (Perkin Elmer). Plates were read using an EnVision® Multilabel Plate Reader (Perkin Elmer). Within an experiment, a concentration response curve for each compound was run in duplicate. The signal obtained in the test wells was normalized using high signal (BAFF stimulated cells, DMSO, MG132) and low signal (unstimulated cells, DMSO) controls. To determine the IC50, a sigmoidal curve was fitted to the plot of % inhibition versus Log10 compound concentration.

Row | IC50 [nM] | SMILES
11 | 81 | CN1CC[C@@](O)(C#Cc2cccc(-c3ccc4nc(C(F)(F)F)nc(N)c4n3)c2)C1=O [Example 176, (R)-3-((3-(4-Amino-2-(trifluoromethyl)pyrido[3,2-d]pyrimidin-6-yl)phenyl)ethynyl)-3-hydroxy-1-methylpyrrolidin-2-one]
12 | > 5000 | CN1CC[C@@](O)(C#Cc2cccc(-c3ccc4ccnc(N5CCC5)c4c3)c2)C1=O [Example 234, (R)-3-((3-(1-(Azetidin-1-yl)isoquinolin-7-yl)phenyl)ethynyl)-3-hydroxy-1-methylpyrrolidin-2-one]
13 | 4350 | [2H]c1nc(N)c2nc(-c3cccc(C#C[C@@]4(O)C[C@H](C)N(C)C4=O)c3)ccc2n1 [Example 263, (3S,5S)-3-((3-(4-Aminopyrido[3,2-d]pyrimidin-6-yl-2-d)phenyl)ethynyl)-3-hydroxy-1,5-dimethylpyrrolidin-2-one]
14 | > 5000 | CN1CC[C@@](O)(C#Cc2cccc(-c3ccc4ncncc4n3)c2)C1=O [Example 223]
15 | 3 | CN1CC[C@@](O)(C#Cc2cccc(-c3ccc4ncnc(N)c4n3)c2)C1=O [Example 12, (R)-3-((3-(4-Aminopyrido[3,2-d]pyrimidin-6-yl)phenyl)ethynyl)-3-hydroxy-1-methylpyrrolidin-2-one]
16 | 3.3 | [2H]c1nc(N)c2nc(-c3cccc(C#C[C@]4(O)CCN(C)C4=O)c3)ccc2n1 [Example 8, (R)-3-((3-(4-Aminopyrido[3,2-d]pyrimidin-6-yl-2-d)phenyl)ethynyl)-3-hydroxy-1-methylpyrrolidin-2-one]
17 | 660 | [2H]c1nc(N)c2nc(-c3cccc(C#C[C@@]4(O)C[C@@H](C)N(C)C4=O)c3)ccc2n1 [Example 264, (3S,5R)-3-((3-(4-Aminopyrido[3,2-d]pyrimidin-6-yl-2-d)phenyl)ethynyl)-3-hydroxy-1,5-dimethylpyrrolidin-2-one]

The remaining lines, values behind:

Row | SMILES | IC50 [nM]
18 | Nc1ncnc2cnc(-c3cccc(C#C[C@]4(O)CCn5ccnc54)c3)nc12 [Example 146, (R)-7-[2-[3-(4-Aminopyrimido[5,4-d]pyrimidin-6-yl)phenyl]ethynyl]-5,6-dihydropyrrolo[1,2-a]imidazol-7-ol] | 2.7
19 | [2H]c1nc(N)c2nc(-c3cccc(C#C[C@@]4(O)CCCN(C)C4=O)c3)ccc2n1 [Example 199, (S)-3-((3-(4-Aminopyrido[3,2-d]pyrimidin-6-yl-2-d)phenyl)ethynyl)-3-hydroxy-1-methylpiperidin-2-one] | > 5000
20 | [2H]c1nc(NS(C)(=O)=O)c2nc(-c3cccc(C#C[C@]4(O)CCN(C)C4=O)c3)ccc2n1 [Example 269, (R)—N-(6-(3-((3-Hydroxy-1-methyl-2-oxopyrrolidin-3-yl)ethynyl)phenyl)pyrido[3,2-d]pyrimidin-4-yl-2-d)methanesulfonamide] | 3850
21 | [2H]c1nc(NC(C)=O)c2nc(-c3cccc(C#C[C@]4(O)CCN(C)C4=O)c3)ccc2n1 [Example 259, (R)—N-(6-(3-((3-Hydroxy-1-methyl-2-oxopyrrolidin-3-yl)ethynyl)phenyl)pyrido[3,2-d]pyrimidin-4-yl-2-d)acetamide] | 65
22 | [2H]c1nc(N)c2nc(-c3cccc(C#C[C@]4(O)C[C@H](C)N(C)C4=O)c3)ccc2n1 [Example 262, (3R,5S)-3-((3-(4-Aminopyrido[3,2-d]pyrimidin-6-yl-2-d)phenyl)ethynyl)-3-hydroxy-1,5-dimethylpyrrolidin-2-one] | 220
23 | Cc1cc(C#C[C@]2(O)CCN(C)C2=O)cc(-c2nc3c(N)ncnc3s2)c1 [Example 153, (R)-3-((3-(7-Aminothiazolo[5,4-d]pyrimidin-2-yl)-5-methylphenyl)ethynyl)-3-hydroxy-1-methylpyrrolidin-2-one] | 47
24 | CN1CC[C@@](O)(C#Cc2cccc(-c3nc4c(N)nccc4[nH]3)c2)C1=O [Example 59, (R)-3-[2-[3-(4-Amino-1H-imidazo[4,5-c]pyridin-2-yl)phenyl]ethynyl]-3-hydroxy-1-methyl-pyrrolidin-2-one] | > 5000
25 | [2H]c1nc(N)c2nc(-c3cccc(C#C[C@@]4(O)CCN(C)C4=O)c3)ccc2n1 [Example 9, (S)-3-((3-(4-Aminopyrido[3,2-d]pyrimidin-6-yl-2-d)phenyl)ethynyl)-3-hydroxy-1-methylpyrrolidin-2-one] | 670
26 | COC1CN(c2ncnc3ccc(-c4cccc(C#C[C@]5(O)CCN(C)C5=O)c4)nc23)C1 [Example 230, (R)-3-Hydroxy-3-((3-(4-(3-methoxyazetidin-1-yl)pyrido[3,2-d]pyrimidin-6-yl)phenyl)ethynyl)-1-methylpyrrolidin-2-one] | 350
27 | [2H]c1nc(N)c2nc(-c3cccc(C#C[C@]4(O)C[C@@H](C)N(C)C4=O)c3)ccc2n1 [Example 261, (3R,5R)-3-((3-(4-Aminopyrido[3,2-d]pyrimidin-6-yl-2-d)phenyl)ethynyl)-3-hydroxy-1,5-dimethylpyrrolidin-2-one] | 7.7
28 | CC(=O)Nc1ncnc2ccc(-c3cccc(C#C[C@]4(O)CCN(C)C4=O)c3)nc12 [Example 238, (R)—N-(6-(3-((3-Hydroxy-1-methyl-2-oxopyrrolidin-3-yl)ethynyl)phenyl)pyrido[3,2-d]pyrimidin-4-yl)acetamide] | 73
